Data from the supplement of paper PMC4862054.

System: CAL-148
Assay: drug sensitivity score (DSS), CellTox Green (DSS (AUC-based score)); higher = stronger drug effect (viability inhibition or cytotoxicity); extreme values may be limits of the assay
Conditions: incubation time: 72 h
Procedure, shortened: (§1)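 Normalisation on every plate relied on 0.1 % DMSO and a positive kill control. The plates, 384-well format, held compound at 5 concentrations 10-fold apart across a compound-specific 10,000-fold range, and breast cancer cell lines in 20 µl suspension were incubated on them for 72 h before CellTox Green and then CellTiter-Glo readings. The drug sensitivity score derives from the area under the fitted dose-response curve.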

SMILES | drug sensitivity score
O=C1c2c(O)ccc(O)c2C(=O)c2c(NCCNCCO)ccc(NCCNCCO)c21 [Mitoxantrone] | 3.55
Nc1ccccc1NC(=O)c1ccc(CNc2nccc(-c3cccnc3)n2)cc1 [Mocetinostat] | 2.32
COc1nc(N)nc2c1ncn2[C@@H]1O[C@H](CO)[C@@H](O)[C@@H]1O [Nelarabine] | 0
Cc1ccc(Nc2nccc(N(C)c3ccc4c(C)n(C)nc4c3)n2)cc1S(N)(=O)=O [Pazopanib] | 0
CS(=O)(=O)N1CCN(Cc2cc3nc(-c4cccc5[nH]ncc45)nc(N4CCOCC4)c3s2)CC1 [Pictilisib] | 9.53
O=C(NC[C@H](O)CO)c1ccncc1Nc1ccc(I)cc1F [Pimasertib] | 0
O=C(CCBr)N1CCN(C(=O)CCBr)CC1 [Pipobroman] | 0
c1cc(CN2CCCNCCNCCCNCC2)ccc1CN1CCCNCCNCCCNCC1 [Plerixafor] | 0
Cn1cc(CNCC2CCN(c3ncc(C(=O)NO)cn3)CC2)c2ccccc21 [Quisinostat] | 14.8
CC(C)N(CCCNC(=O)Nc1ccc(C(C)(C)C)cc1)C[C@H]1O[C@@H](n2cc(Br)c3c(N)ncnc32)[C@H](O)[C@@H]1O [SGC0946] | 0

System: MCF-10A
Assay: as above
Conditions: incubation time: 72 h
Procedure, shortened: as §1

SMILES | drug sensitivity score
Cc1cccc(-c2nn3c(c2-c2ccnc4ccc(C(N)=O)cc24)CCC3)n1 [Galunisertib] | 0
Nc1cccc2c1CN(C1CCC(=O)NC1=O)C2=O (centres undefined) [Lenalidomide] | 0
C[C@]12O[C@H](C[C@]1(O)CO)n1c3ccccc3c3c4c(c5c6ccccc6n2c5c31)CNC4=O [Lestaurtinib] | 0
O=C1c2c(O)ccc(O)c2C(=O)c2c(NCCNCCO)ccc(NCCNCCO)c21 [Mitoxantrone] | 0
Nc1ccccc1NC(=O)c1ccc(CNc2nccc(-c3cccnc3)n2)cc1 [Mocetinostat] | 0
COc1nc(N)nc2c1ncn2[C@@H]1O[C@H](CO)[C@@H](O)[C@@H]1O [Nelarabine] | 0
Cc1ccc(Nc2nccc(N(C)c3ccc4c(C)n(C)nc4c3)n2)cc1S(N)(=O)=O [Pazopanib] | 0
CS(=O)(=O)N1CCN(Cc2cc3nc(-c4cccc5[nH]ncc45)nc(N4CCOCC4)c3s2)CC1 [Pictilisib] | 7.08
O=C(NC[C@H](O)CO)c1ccncc1Nc1ccc(I)cc1F [Pimasertib] | 0
O=C(CCBr)N1CCN(C(=O)CCBr)CC1 [Pipobroman] | 0
c1cc(CN2CCCNCCNCCCNCC2)ccc1CN1CCCNCCNCCCNCC1 [Plerixafor] | 0
Cn1cc(CNCC2CCN(c3ncc(C(=O)NO)cn3)CC2)c2ccccc21 [Quisinostat] | 0
CC(C)N(CCCNC(=O)Nc1ccc(C(C)(C)C)cc1)C[C@H]1O[C@@H](n2cc(Br)c3c(N)ncnc32)[C@H](O)[C@@H]1O [SGC0946] | 0

System: HCC1937
Assay: as above
Conditions: incubation time: 72 h
Procedure, shortened: as §1

SMILES | drug sensitivity score
Cc1cccc(-c2nn3c(c2-c2ccnc4ccc(C(N)=O)cc24)CCC3)n1 [Galunisertib] | 0
Nc1cccc2c1CN(C1CCC(=O)NC1=O)C2=O (centres undefined) [Lenalidomide] | 0
C[C@]12O[C@H](C[C@]1(O)CO)n1c3ccccc3c3c4c(c5c6ccccc6n2c5c31)CNC4=O [Lestaurtinib] | 0
O=C1c2c(O)ccc(O)c2C(=O)c2c(NCCNCCO)ccc(NCCNCCO)c21 [Mitoxantrone] | 0
Nc1ccccc1NC(=O)c1ccc(CNc2nccc(-c3cccnc3)n2)cc1 [Mocetinostat] | 0.396
COc1nc(N)nc2c1ncn2[C@@H]1O[C@H](CO)[C@@H](O)[C@@H]1O [Nelarabine] | 0
Cc1ccc(Nc2nccc(N(C)c3ccc4c(C)n(C)nc4c3)n2)cc1S(N)(=O)=O [Pazopanib] | 0
CS(=O)(=O)N1CCN(Cc2cc3nc(-c4cccc5[nH]ncc45)nc(N4CCOCC4)c3s2)CC1 [Pictilisib] | 0
O=C(NC[C@H](O)CO)c1ccncc1Nc1ccc(I)cc1F [Pimasertib] | 0
O=C(CCBr)N1CCN(C(=O)CCBr)CC1 [Pipobroman] | 0
c1cc(CN2CCCNCCNCCCNCC2)ccc1CN1CCCNCCNCCCNCC1 [Plerixafor] | 0
Cn1cc(CNCC2CCN(c3ncc(C(=O)NO)cn3)CC2)c2ccccc21 [Quisinostat] | 0
CC(C)N(CCCNC(=O)Nc1ccc(C(C)(C)C)cc1)C[C@H]1O[C@@H](n2cc(Br)c3c(N)ncnc32)[C@H](O)[C@@H]1O [SGC0946] | 0

System: CAL-120
Assay: as above
Conditions: incubation time: 72 h
Procedure, shortened: as §1

SMILES | drug sensitivity score
Cc1cccc(-c2nn3c(c2-c2ccnc4ccc(C(N)=O)cc24)CCC3)n1 [Galunisertib] | 0
Nc1cccc2c1CN(C1CCC(=O)NC1=O)C2=O (centres undefined) [Lenalidomide] | 0
C[C@]12O[C@H](C[C@]1(O)CO)n1c3ccccc3c3c4c(c5c6ccccc6n2c5c31)CNC4=O [Lestaurtinib] | 0
O=C1c2c(O)ccc(O)c2C(=O)c2c(NCCNCCO)ccc(NCCNCCO)c21 [Mitoxantrone] | 0
Nc1ccccc1NC(=O)c1ccc(CNc2nccc(-c3cccnc3)n2)cc1 [Mocetinostat] | 3.91
COc1nc(N)nc2c1ncn2[C@@H]1O[C@H](CO)[C@@H](O)[C@@H]1O [Nelarabine] | 0
Cc1ccc(Nc2nccc(N(C)c3ccc4c(C)n(C)nc4c3)n2)cc1S(N)(=O)=O [Pazopanib] | 0
CS(=O)(=O)N1CCN(Cc2cc3nc(-c4cccc5[nH]ncc45)nc(N4CCOCC4)c3s2)CC1 [Pictilisib] | 0
